Tested on: Tel22 (DNA, G4) AGGGTTAGGGTTAGGGTTAGGG
Experiment: CD melting, SVD global fit
Details: 150 mM KCl; 50 mM phosphate, 0.3 mM EDTA, pH 7; 60 μM ligand, 30 μM DNA; not irradiated; 3–4

- Tm: ~ 3 degrees
SMILES: C[n+]1ccc(-c2c3nc(c(-c4cc[n+](C)cc4)c4ccc([nH]4)c(-c4cc[n+](C)cc4)c4nc(c(-c5cc[n+](C)cc5)c5ccc2[nH]5)C=C4)C=C3)cc1
